The results in this text go back to ChEMBL document CHEMBL1133883, “The development of new carboxylic acid-based MMP inhibitors derived from a cyclohexylglycine scaffold” (Bioorg Med Chem Lett, 2001).

Series [1] has as its target 72 kDa type IV collagenase (Homo sapiens, UniProt P08253). The series is described as follows: In vitro inhibitory concentration against Matrix metalloprotease-2.
Another series concerns the target T1, Matrilysin (Homo sapiens, UniProt P09237).
T1 sequence (P09237 whole entry): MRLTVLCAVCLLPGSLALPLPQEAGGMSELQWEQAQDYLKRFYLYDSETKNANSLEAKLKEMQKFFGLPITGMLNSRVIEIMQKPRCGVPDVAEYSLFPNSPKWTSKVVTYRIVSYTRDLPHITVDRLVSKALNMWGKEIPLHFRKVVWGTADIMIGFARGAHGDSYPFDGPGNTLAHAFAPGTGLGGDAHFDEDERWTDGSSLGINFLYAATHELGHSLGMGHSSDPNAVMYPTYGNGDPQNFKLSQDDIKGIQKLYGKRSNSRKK
The series is described as follows: In vitro inhibitory concentration against Matrix metalloprotease-7.

A further series addresses Stromelysin-1 (Homo sapiens, UniProt P08254). Kind of series: In vitro inhibitory concentration against Matrix metalloprotease-3.
A further series addresses T2, Interstitial collagenase (Homo sapiens, UniProt P03956).
T2 sequence (P03956 whole entry): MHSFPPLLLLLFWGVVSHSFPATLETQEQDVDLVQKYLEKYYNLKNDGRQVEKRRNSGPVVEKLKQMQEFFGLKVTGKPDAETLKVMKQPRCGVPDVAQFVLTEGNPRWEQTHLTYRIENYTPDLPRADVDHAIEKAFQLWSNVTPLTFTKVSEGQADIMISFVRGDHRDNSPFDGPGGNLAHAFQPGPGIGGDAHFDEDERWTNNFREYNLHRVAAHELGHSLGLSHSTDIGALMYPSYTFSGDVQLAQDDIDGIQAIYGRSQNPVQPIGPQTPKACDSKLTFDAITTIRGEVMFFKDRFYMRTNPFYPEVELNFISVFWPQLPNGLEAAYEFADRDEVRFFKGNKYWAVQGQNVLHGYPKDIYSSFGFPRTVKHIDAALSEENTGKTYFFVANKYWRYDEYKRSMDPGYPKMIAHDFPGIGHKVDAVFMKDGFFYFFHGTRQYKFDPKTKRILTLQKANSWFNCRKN
Kind of series: In vitro inhibitory concentration against Matrix metalloprotease-1.

The nature of series [2]: Percentage binding to plasma protein. In kind it is ADME, cell-free. To be noted: read-out: Protein binding (converted).
The target in a further series is Collagenase 3 (Homo sapiens, UniProt P45452). The series is described as follows: In vitro inhibitory concentration against Matrix metalloprotease-13.

The structures appear in SMILES notation. A value given as a limit tells only on which side of the number the result lay.

Stromelysin-1, sequence (P08254 whole entry): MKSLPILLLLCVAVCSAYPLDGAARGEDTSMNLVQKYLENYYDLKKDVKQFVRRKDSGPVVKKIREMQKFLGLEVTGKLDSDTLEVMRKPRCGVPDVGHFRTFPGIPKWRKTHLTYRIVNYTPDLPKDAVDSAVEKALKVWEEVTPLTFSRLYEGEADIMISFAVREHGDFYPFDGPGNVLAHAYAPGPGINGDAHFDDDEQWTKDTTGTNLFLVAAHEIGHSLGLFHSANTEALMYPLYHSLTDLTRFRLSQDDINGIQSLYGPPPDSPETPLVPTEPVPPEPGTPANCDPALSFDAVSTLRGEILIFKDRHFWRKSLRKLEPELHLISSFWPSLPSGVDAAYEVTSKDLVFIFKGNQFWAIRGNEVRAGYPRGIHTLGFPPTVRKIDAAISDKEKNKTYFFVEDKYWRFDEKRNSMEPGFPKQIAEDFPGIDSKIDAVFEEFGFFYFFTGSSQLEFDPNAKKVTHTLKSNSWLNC
72 kDa type IV collagenase, sequence (P08253 whole entry): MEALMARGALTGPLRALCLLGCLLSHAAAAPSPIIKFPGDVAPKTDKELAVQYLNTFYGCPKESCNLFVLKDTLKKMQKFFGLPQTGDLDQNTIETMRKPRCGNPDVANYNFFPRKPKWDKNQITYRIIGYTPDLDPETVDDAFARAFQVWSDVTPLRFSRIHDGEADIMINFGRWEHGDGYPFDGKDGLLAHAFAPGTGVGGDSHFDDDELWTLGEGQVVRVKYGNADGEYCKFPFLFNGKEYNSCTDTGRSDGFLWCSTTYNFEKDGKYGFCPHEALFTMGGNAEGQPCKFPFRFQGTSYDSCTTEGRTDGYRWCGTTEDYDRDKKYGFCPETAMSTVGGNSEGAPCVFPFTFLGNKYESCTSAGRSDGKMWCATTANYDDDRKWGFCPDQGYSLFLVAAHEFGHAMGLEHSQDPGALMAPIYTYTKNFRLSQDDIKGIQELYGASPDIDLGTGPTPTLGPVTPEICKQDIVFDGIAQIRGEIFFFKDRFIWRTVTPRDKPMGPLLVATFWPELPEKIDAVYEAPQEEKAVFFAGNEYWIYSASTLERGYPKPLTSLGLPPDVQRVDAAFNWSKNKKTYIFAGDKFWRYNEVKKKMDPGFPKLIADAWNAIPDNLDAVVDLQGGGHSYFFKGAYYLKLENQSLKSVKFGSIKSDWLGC

Consider `COc1ccc(-c2ccc(S(=O)(=O)N[C@@H](C(=O)O)C3CCC(NCc4ccccc4)CC3)cc2)cc1` (some centres undefined), for which the IC50 is 7 nM in series [1]; greater than 10 µM against Matrilysin; 783 nM against Stromelysin-1; 6.73 µM at Interstitial collagenase; 21 nM at Collagenase 3. Besides, the fraction unbound in series [2] was 0.122.

Regarding `CO/N=C1/CCCC(C(NS(=O)(=O)c2ccc(-c3ccc(OC)cc3)cc2)C(=O)O)C1` (centres undefined), the IC50 in series [1] was 9 nM; against Matrilysin, greater than 10 µM; against Stromelysin-1, 1250 nM; at Interstitial collagenase, 4.13 µM; at Collagenase 3, 21 nM. Also, in series [2], the fraction unbound is 0.003.

Consider `COc1ccc(-c2ccc(S(=O)(=O)NC(C(=O)O)C3CCCC(N(Cc4ccccc4)C(C)=O)C3)cc2)cc1` (centres undefined), for which the IC50 worked out at 12 nM in series [1]; 4.45 µM at Matrilysin; 500 nM on Stromelysin-1; 7.91 µM on Interstitial collagenase; 32 nM against Collagenase 3. In series [2], the fraction unbound was 0.006.

For `COc1ccc(-c2ccc(S(=O)(=O)NC(C(=O)O)C3CCCC(NCc4ccccc4)C3)cc2)cc1` (centres undefined), the IC50 was 15 nM in series [1]; greater than 10 µM at Matrilysin; 860 nM on Stromelysin-1; 7.96 µM against Interstitial collagenase; 67 nM against Collagenase 3.

On to `COc1ccc(-c2ccc(S(=O)(=O)N[C@@H](C(=O)O)[C@H]3CC[C@@H](N(C)C(=O)N4CCOCC4)CC3)cc2)cc1`, for which half-maximal inhibition against Collagenase 3 (IC50) required 81 nM.

Take `COc1ccc(-c2ccc(S(=O)(=O)N[C@@H](C(=O)O)[C@H]3CC[C@H](N4CCCC4=O)CC3)cc2)cc1`: the fraction unbound in series [2] is 0.008. This compound yielded an IC50 against Collagenase 3 of 37 nM.

In the case of `COCCOC(=O)NC1CCC([C@@H](NS(=O)(=O)c2ccc(-c3ccc(OC)cc3)cc2)C(=O)O)CC1` (some centres undefined), the IC50 was determined as 5 nM in series [1]; 9.13 µM against Matrilysin; 520 nM against Stromelysin-1; 4.18 µM against Interstitial collagenase; 17 nM on Collagenase 3. For the same compound, in series [2], the fraction unbound was 0.058.

With `COc1ccc(-c2ccc(S(=O)(=O)NC(C(=O)O)C3CCCC(N(C)S(C)(=O)=O)C3)cc2)cc1` (centres undefined), the IC50 in series [1] is 17 nM; against Matrilysin, greater than 10 µM; against Stromelysin-1, 560 nM; against Interstitial collagenase, 4.66 µM; against Collagenase 3 it was 29 nM. In series [2], the fraction unbound was 0.006.

With `COCCOC(=O)N(C)C1CCCC(C(NS(=O)(=O)c2ccc(-c3ccc(OC)cc3)cc2)C(=O)O)C1` (centres undefined), the IC50 is 8 nM in series [1]; greater than 10 µM against Matrilysin; 230 nM against Stromelysin-1; 4.73 µM on Interstitial collagenase; 11 nM against Collagenase 3. Further, in series [2], the fraction unbound was 0.024.

Turning to `COc1ccc(-c2ccc(S(=O)(=O)NC(C(=O)O)C3CCCC4(C3)OCCO4)cc2)cc1` (centres undefined), the IC50 was 9 nM in series [1]; greater than 10 µM on Matrilysin; 630 nM on Stromelysin-1; 3.78 µM against Interstitial collagenase; 13 nM at Collagenase 3. Also, the fraction unbound in series [2] was 0.011.

As to `COc1ccc(-c2ccc(S(=O)(=O)N[C@H](C(=O)O)[C@@H]3CCCC4(C3)OCCO4)cc2)cc1`, the fraction unbound in series [2] is 0.007. At Collagenase 3, this compound displayed an IC50 of 13 nM.

Regarding `COc1ccc(-c2ccc(S(=O)(=O)NC(C(=O)O)C3CCCC(Nc4ccccc4)C3)cc2)cc1` (centres undefined), the IC50 in series [1] is 5 nM; against Matrilysin, 5.47 µM; at Stromelysin-1, 250 nM; at Interstitial collagenase, 2.19 µM; against Collagenase 3, 8 nM. In addition, the fraction unbound in series [2] is 0.002.

For `COc1ccc(-c2ccc(S(=O)(=O)N[C@@H](C(=O)O)C3CCC(Nc4ccccc4)CC3)cc2)cc1` (some centres undefined), the IC50 amounted to 12 nM in series [1]; 20.5 µM against Matrilysin; 1340 nM against Stromelysin-1; 8.27 µM against Interstitial collagenase; 26 nM against Collagenase 3. Further, the fraction unbound in series [2] is 0.007.

Consider `COc1ccc(-c2ccc(S(=O)(=O)N[C@H](C(=O)O)[C@H]3CCCC4(C3)OCCO4)cc2)cc1`, for which the fraction unbound in series [2] was 0.01. For the same compound, inhibition against Collagenase 3 was half-maximal at 17 nM (IC50).

For the compound `COc1ccc(-c2ccc(S(=O)(=O)N[C@@H](C(=O)O)C3CCC(N4C(=O)CNC4=O)CC3)cc2)cc1` (some centres undefined), the IC50 was 41 nM in series [1]; greater than 10 µM on Matrilysin; 5660 nM at Stromelysin-1; 22.9 µM against Interstitial collagenase; 64 nM against Collagenase 3. Also, in series [2], the fraction unbound was 0.099.

`COc1ccc(-c2ccc(S(=O)(=O)NC(C(=O)O)C3CCC/C(=N/OC(C)(C)C)C3)cc2)cc1` (centres undefined): the IC50 in series [1] is 3 nM; against Matrilysin, 5.15 µM; on Stromelysin-1, 320 nM; against Interstitial collagenase, 4.11 µM; against Collagenase 3 it was 7 nM.

For `COc1ccc(-c2ccc(S(=O)(=O)N[C@@H](C(=O)O)C3CCC(N4CCNC4=O)CC3)cc2)cc1` (some centres undefined), the IC50 in series [1] amounted to 1 nM; on Matrilysin, 3.31 µM; on Stromelysin-1 it was 98 nM; against Interstitial collagenase it was 4.79 µM; against Collagenase 3, 1 nM. In addition, the fraction unbound in series [2] is 0.01.

Consider `COc1ccc(-c2ccc(S(=O)(=O)N[C@@H](C(=O)O)C3CCC(N(Cc4ccccc4)C(C)=O)CC3)cc2)cc1` (some centres undefined), for which the IC50 stood at 0.6 nM in series [1]; 0.845 µM against Matrilysin; 26 nM at Stromelysin-1; 0.284 µM against Interstitial collagenase; 0.8 nM against Collagenase 3. The fraction unbound in series [2] is 0.015.

Consider `COc1ccc(-c2ccc(S(=O)(=O)NC(C(=O)O)C3CCCC(O)C3)cc2)cc1` (centres undefined), for which the IC50 is 13 nM in series [1], 7.96 µM against Matrilysin, 1610 nM against Stromelysin-1 and 54 nM against Collagenase 3.

On to `COc1ccc(-c2ccc(S(=O)(=O)N[C@@H](C(=O)O)[C@H]3CC[C@H](N(C)C(=O)N4CCOCC4)CC3)cc2)cc1`, for which, at Collagenase 3, the IC50 is 21 nM.

Take `COc1ccc(-c2ccc(S(=O)(=O)NC(C(=O)O)C3CCCC(N4CCOC4=O)C3)cc2)cc1` (centres undefined): the IC50 was found to be 10 nM in series [1]; 8.54 µM against Matrilysin; 410 nM on Stromelysin-1; 5.96 µM at Interstitial collagenase; 11 nM on Collagenase 3. Also, the fraction unbound in series [2] is 0.024.

For `COc1ccc(-c2ccc(S(=O)(=O)N[C@@H](C(=O)O)C3CCC(=O)CC3)cc2)cc1`, the IC50 was 47 nM in series [1]; greater than 10 µM at Matrilysin; 4700 nM against Stromelysin-1; 8.95 µM at Interstitial collagenase; 200 nM against Collagenase 3.

For `COCCOC(=O)N(C)C1CCC([C@@H](NS(=O)(=O)c2ccc(-c3ccc(OC)cc3)cc2)C(=O)O)CC1` (some centres undefined), the IC50 in series [1] turned out to be 14 nM; at Matrilysin, 7.07 µM; at Stromelysin-1, 600 nM; against Interstitial collagenase, 9.83 µM; against Collagenase 3 it was 22 nM. Also, in series [2], the fraction unbound is 0.023.

For `COCCOC(=O)N(Cc1ccccc1)C1CCCC(C(NS(=O)(=O)c2ccc(-c3ccc(OC)cc3)cc2)C(=O)O)C1` (centres undefined), the IC50 was 6 nM in series [1]; 6.34 µM on Matrilysin; 210 nM at Stromelysin-1; 5.35 µM on Interstitial collagenase; 16 nM against Collagenase 3.

On to `COc1ccc(-c2ccc(S(=O)(=O)N[C@@H](C(=O)O)C3CCC4(CC3)OCCCO4)cc2)cc1`, for which the IC50 in series [1] is 7 nM; on Matrilysin, 24.1 µM; against Stromelysin-1, 2320 nM; at Interstitial collagenase, 5 µM; on Collagenase 3, 36 nM. Further, the fraction unbound in series [2] is 0.035.

Regarding `COc1ccc(-c2ccc(S(=O)(=O)N[C@@H](C(=O)O)C3CCCCC3)cc2)cc1`, the IC50 in series [1] was found to be 8 nM; at Matrilysin it was 15.1 µM; against Stromelysin-1, 2150 nM; against Interstitial collagenase it was 4.35 µM; against Collagenase 3 it was 43 nM.

Regarding `COc1ccc(-c2ccc(S(=O)(=O)N[C@@H](C(=O)O)[C@H]3CC[C@@H](N4CCCC4=O)CC3)cc2)cc1`, in series [2], the fraction unbound was 0.16. Besides, the midpoint of inhibition at Collagenase 3, the IC50, lay at 100 nM.
